# Experimental data taken from patent US11642419B2, “Compositions and methods for treating cardiovascular related disorders” (The Regents of the University of Michigan, priority 2015, dated 2023).
# What was measured:
# ABCG1 [1] = assay: qRT-PCR of ABCG1 in blood monocytes of treated apoE−/− mice; format: in vivo; settings: 1.5 mg/kg TO901317 i.p., three times per week, 6 weeks, FIG. 11
# Procedure: (§1) The effect of TO901317-encapsulated sHDL on target gene expression in monocytes from apoE^−/− mice was also investigated. Six-week-old male apoE^−/− mice were place on atherogenic high fat diet (HFD) for 12 weeks to induce atherosclerotic lesion formation. Mice were randomly divided into five groups, and each group was treated with intraperitoneal injections of the following regimens with an equivalent dose of 1.5 mg/kg entrapped TO901317: 1) PBS, 2) DMSO, 3) TO901317 dissolved in dimethyl sulfoxide (DMSO) (free TO901317), 4) sHDL nanoparticles, or 5) TO901317-encapsulated sHDL particles. The mice were treated for 6 weeks (three times per week, on Monday, Wednesday and Friday). The monocytes from the blood were isolated and the expression of ABCA1 and ABCG1 was detected by qRT-PCR as described in FIG. 5.
# [2] = Plasma lipids in C57BL/6J mice; format: in vivo; settings: TO901317 0.5, 1.5, 10 mg/kg intraperitoneal, 24 hours later, FIG. 8
# Procedure: (§2) FIGS. 8A and 8B show the effects of TO901317-encapsulated sHDL particles on plasma lipids in C57BL/6J Mice. C57BL/6J wild type mice were divided into 8 groups and treated with DMSO, TO901317 at 0.5 mg/kg, TO901317 at 1.5 mg/kg, TO901317 at 10 mg/kg, or sHDL blank particles, TO901317-encapsulated sHDL particles with TO901317 at 0.5 mg/kg, TO901317-encapsulated sHDL particles with TO901317 at 1.5 mg/kg, TO901317-encapsulated sHDL particles with TO901317 at 10 mg/kg via intraperitoneal injection. Twenty-four hours later, collected plasma and liver tissues were stored at −80° C. until processed. Direct LDL-cholesterol (LDL-c), direct HDL-cholesterol (HDL-c), and enzymatic-colorimetric assays used to determine plasma total cholesterol (TC) and triglycerides (TG) were carried out at the Chemistry Laboratory of the Michigan Diabetes Research and Training Center.
# [3] = Liver tissue triglyceride in apoE−/− mice; format: in vivo; settings: 1.5 mg/kg TO901317 i.p., three times per week, 6 weeks, FIG. 12
# Procedure: (§3) Six-week-old male apoE^−/− mice were place on atherogenic high fat diet (HFD) for 12 weeks to induce atherosclerotic lesion formation. Mice were randomly divided into five groups, and each group was treated with intraperitoneal injections of the following regimens with an equivalent dose of 1.5 mg/kg entrapped TO901317: 1) PBS, 2) DMSO, 3) TO901317 dissolved in dimethyl sulfoxide (DMSO) (free TO901317), 4) sHDL nanoparticles, or 5) TO901317-encapsulated sHDL particles. The mice were treated for 6 weeks (three times per week, on Monday, Wednesday and Friday). Liver tissue triglyceride concentrations were measured using a Triglyceride Quantification Kit (Cayman). Fifty mg of liver was homogenized in a 5% NP-40 buffer, and assay was performed according to manufacturer's directions.
# SREBP1c [4] = assay: qRT-PCR of SREBP1c in the liver of apoE−/− mice; format: in vivo; settings: liver tissues from FIG. 12, FIG. 13
# Procedure: as §3
# LXR ligands have been implicated in triggering induction of the lipogenic pathway via activation of SREBP-1c in the liver, which leads to the adverse effects of steatosis and hypertriglyceridemia. The liver tissues from FIG. 12 were used to detect the expression of SREBP1c and Fatty acid synthase (FAS) using qRT-PCR as described in FIG. 5.
# ABCA1 [5] = assay: qRT-PCR of ABCA1 expression in J774.1 macrophages; format: cell-based, murine; settings: FIG. 3C
# Procedure: (§4) Incorporation of LXR agonist into sHDL is the first and most important step for all subsequent studies. Phospholipids, apoA-I mimetic peptide (22A) and LXR agonist TO901317 (TO) were hydrated in an aqueous solution and the sHDL nanoparticles were formed after 3 cycles of thermal cycling between 25 and 50° C. (see, e.g., Di Bartolo, B. A.; et al., Atherosclerosis 2011, 217 (2), 395-400; Dasseux, J.-L. Peptide/lipid complex formation by co-lyophilization. 2001). The homogeneity of the size distribution was confirmed by gel permeation chromatography (GPC) and scanning electron microscopy (SEM) (FIG. 3A-B). The average particle size of sHDL was 6-14 nm (e.g., 8-10 nm) as determined by dynamic light scattering using a Malvern Nanosizer. […]
# (§5) In macrophages, LXRs control transcription of several genes involved in the cholesterol efflux pathway, including ABCA1 and ABCG1. To examine the ability of TO901317-encapsulated sHDL particles to activate LXR-target genes, J774.1 murine macrophage cells were incubated with sHDL blank particles or TO901317-encapsulated sHDL particles (TO901317 at 10^−6M) for 4 hours and the expression of both genes were measured using quantitative real-time PCR (qRT-PCR). […] The resulting cDNA was amplified with appropriate primers using power SYBR Green PCR Master Mix and analyzed on a CFX real-time PCR system (Bio-Rad). […]
# SREBP1c [6] = assay: qRT-PCR of SREBP1c expression in the liver of C57BL/6J mice; format: in vivo; settings: liver tissues from FIG. 8, FIG. 9
# Procedure: To visualize whether sHDL can deliver its cargo to the plaque efficiently, a lipophilic near-infrared fluorescent dye, DiD, was incorporated into sHDL. […] The DiD-labeled sHDL nanoparticles were administrated by tail vein injection at a dose of 100 μg DiD and 10 mg/Kg sHDL to a murine atherosclerosis model. 24 hours post injection, animals were sacrificed and aortas were removed. DiD fluorescence associated with aortas were analyzed using the Xenogen IVIS optical imaging system. […] The side effects of different LXR agonist formulations were assessed.
# as §2, with “Direct LDL-cholesterol (LDL-c), direct HDL-cholesterol (HDL-c), and enzymatic-colorimetric assays used to determine plasma total cholesterol (TC) and triglycerides (TG) were carried out at the Chemistry Laboratory of the Michigan Diabetes Research and Training Center.” left out
# [7] = Plasma lipids in apoE-deficient mice; format: in vivo; settings: apoE-deficient mice on HFD, i.p., three times per week, 6 weeks, FIG. 22
# Procedure: Six-week-old male apoE^−/− mice were place on HFD for 6 weeks to induce atherosclerotic lesion formation. Mice were randomized into 5 groups and received intraperitoneal injection with 1) PBS, 2) DMSO, 3) CD3254 dissolved in dimethyl sulfoxide (DMSO) (free CD3254, at 0.1 mg/kg), 4) sHDL nanoparticles, or 5) CD3254-encapsulated sHDL particles with a dose of 0.1 mg/kg of CD3254. The mice were treated for 6 weeks (three times per week, on Monday, Wednesday and Friday). Direct LDL-cholesterol (LDL-c), direct HDL-cholesterol (HDL-c), and enzymatic-colorimetric assays used to determine plasma total cholesterol (TC) and triglycerides (TG) were carried out at the Chemistry Laboratory of the Michigan Diabetes Research and Training Center.
# ABCG1 [8] = assay: qRT-PCR of ABCG1 expression in J774.1 macrophages; format: cell-based, murine; settings: FIG. 3D
# Procedure: as §4, §5
# ABCA1 [9] = assay: qRT-PCR of ABCA1 in blood monocytes of treated apoE−/− mice; format: in vivo; settings: 1.5 mg/kg TO901317 i.p., three times per week, 6 weeks, FIG. 11
# Procedure: as §1
smiles,measurement,setting,value
O=S(=O)(c1ccccc1)N(CC(F)(F)F)c1ccc(C(O)(C(F)(F)F)C(F)(F)F)cc1 [TO901317],ABCG1 expression in monocytes (qRT-PCR),ABCG1 [1],activated the expression
same,plasma TG levels,[2],significantly elevated
same,triglyceride accumulation in the liver,[3],significantly induced the accumulation of triglyceride
same,expression of SREBP1c in the liver (qRT-PCR),SREBP1c [4],activated SREBP1c
same,ABCA1 expression (qRT-PCR),ABCA1 [5],upregulated
same,expression of SREBP1c in the liver (qRT-PCR),SREBP1c [6],activated SREBP1c
same,plasma TG levels,[7],significantly elevated
same,ABCG1 expression (qRT-PCR),ABCG1 [8],upregulated
same,ABCA1 expression in monocytes (qRT-PCR),ABCA1 [9],activated the expression
